# Experiments:
# aqueous solubility = format: physicochemical
# Protocol: The chemical structures of DMX-5804 and DMX-10001 are compared in Fig. 1a, highlighting the phosphate moiety of the pro-drug. The aqueous solubility of DMX-10001 was > 400-fold greater than that of DMX-5804, allowing it to be infused i.v. without prohibitive fluid volumes. Cleavage to DMX-5804 was detectable in rats within 5 min and largely complete within 60 min (Fig. 1b). Data from i.v. infusion at a range of dose levels in the pig were simultaneously fit to a three-compartment pharmacokinetic model. Plasma protein binding in pig was used to determine free drug levels (not shown). Various dosing regimens were simulated to avoid an initial spike in DMX-5804 whilst rapidly achieving the efficacious drug levels seen in mice after oral gavage (Fig. 1c).
# porcine model of MI [1] = experiment: efficacy study, LAD occlusion 60 min / reperfusion 24 h: infarct size, no-reflow, area at risk; format: in vivo, swine
# Protocol: Next, an efficacy study was performed, in adherence to published guidelines for rigor and reproducibility, to evaluate the postulated benefit of DMX-10001 in a large-mammal model of MI. Briefly, 36 closed-chest swine (41 ± 2 kg) were subjected to regional ischemia by occluding the left anterior descending coronary artery (LAD) distal to the first diagonal branch for 60 min, followed by 24 h of reperfusion. Treatment with DMX-10001 (60 mg/kg/h for 0.5 h, followed by 17 mg/kg/h for 23.5 h) versus the vehicle was initiated 20 min prior to reperfusion and continued for 1 day. After 2 h of reperfusion, animals were allowed to recover from anesthesia. At 24 h of reperfusion, the infarct area (IA), area of no-reflow (NR), and area at ischemic risk (AAR) were determined. Transthoracic short-axis B-mode echocardiograms and measurements of LV pressure and its first derivative (LVdP/dt) were obtained at baseline and at 24 h of reperfusion. LV pressure–volume measurements were obtained at 24 h of reperfusion. Heart-type fatty acid binding protein (hFABP) release was measured, as a biomarker that correlates with IS and NR in swine at least as well as cardiac troponin I [30].
# The LAD was catheterized with a standard clinical guiding catheter (JL3.5, 6F, Medtronic, Minneapolis, MN), and quantitative coronary angiography (CAAS, PIE Medical, Maastricht, The Netherlands) was performed following 2 mg isosorbidedinitrate (Cedocard, Nycomed, Hoofddorp, The Netherlands) and using iodixanol as contrast agent (Visipaque™, GE Healthcare BV, Eindhoven, The Netherlands). Then, an over-the-wire coronary angioplasty balloon (Sprinter OTW, 2–3 mm × 6 mm, Medtronic, Minneapolis, MN) on a standard guide wire (0.014″, 180 cm, ASAHI SION blue, ASAHI Intecc co Ltd, Aichi, Japan) was carefully positioned under fluoroscopic guidance distal to the first diagonal branch. Following balloon inflation, total coronary occlusion was confirmed by angiography (at baseline and at 58 min of occlusion) and by ECG changes. Animals that developed VF during the protocol were defibrillated within 25 ± 10 s. After 1 h of occlusion, the coronary balloon was deflated to establish reperfusion, which was angiographically confirmed to ensure an adequate coronary blood flow to the entire LAD perfusion territory. Heart rate, aortic blood pressure, and ECG were monitored until 2 h of reperfusion.
# Twenty min before the onset of reperfusion, an initial rapid administration was started (30 min infusion, 60 mg/kg/h, Alaris CC, Cardinal Health, Role, Switzerland), followed after 10 min of reperfusion by a lower sustained dose (23.5 h infusion, 17 mg/kg/h, Myfuser, CANOX medical Device Srl, Capurso, Italy). The dosing regimen was determined by iterative computer modeling (XenoGesis Ltd, Alderley Park, UK) (Fig. 1b), based on prior dose-finding studies in pigs (data not shown).
# After completing the post-infarct LV functional measurements on day two, the LAD was again catheterized, as before. The over-the-wire coronary angioplasty balloon and guide wire were positioned under fluoroscopic guidance at the same position, using anatomic landmarks (distance from sidebranches) visualized by coronary angiography. Through the lumen of the balloon, 5 ml of 4% (w/v) thioflavin-S solution (Sigma, Zwijndrecht, The Netherlands) were injected, allowing the area of no-reflow within the AAR to be measured later histologically. The balloon was re-inflated to re-occlude the LAD and a sternotomy was performed. Next, a bolus of 40 ml of a 15% (w/v) Evans Blue solution was injected into the left atrium for negative staining of the AAR. To facilitate excision, the heart was arrested via induction of VF by gently touching the LV epicardium with a 9 V battery. The LV was isolated and sectioned into 5 transverse slices. The AAR and area of no-reflow (NR), visualized using UV light, were quantified in all sections. […]
# porcine model of MI [2] = experiment: efficacy study: convertible ventricular fibrillation and defibrillation; parameters: species or system swine; conditions: in vivo
# Protocol: Investigators involved in the experimental protocol and analysis of the data were blinded to the treatment status of each pig. Animals were randomly assigned to the treatment groups in two blocks, using a random number series generated online. To control further for potential investigator bias, inclusion and exclusion criteria were formulated prior to the onset of the study. Only healthy pigs weighing 38–48 kg, with a body temperature between 37.0 and 40.0 °C at the start of surgical preparation, were included. Exclusion criteria were: (i) Encountering ventricular fibrillation (VF) during the experimental protocol that could not be converted to sinus rhythm within 2 min. (ii) Encountering VF > 4 times before starting the drug or vehicle infusion. (iii) Developing progressive pump failure (mean arterial pressure (MAP) < 30 mmHg) during first 30 min of reperfusion. […]
# The LAD was catheterized with a standard clinical guiding catheter (JL3.5, 6F, Medtronic, Minneapolis, MN), and quantitative coronary angiography (CAAS, PIE Medical, Maastricht, The Netherlands) was performed following 2 mg isosorbidedinitrate (Cedocard, Nycomed, Hoofddorp, The Netherlands) and using iodixanol as contrast agent (Visipaque™, GE Healthcare BV, Eindhoven, The Netherlands). […] Heart rate, aortic blood pressure, and ECG were monitored until 2 h of reperfusion.
smiles,measurement,setting,value
COCCOc1ccc(-c2cn(-c3ccccc3)c3ncn(COP(=O)(O)O)c(=O)c23)cc1 [DMX-10001],aqueous solubility relative to that of DMX-5804,aqueous solubility,> 400 fold
same,IS/AAR,"porcine model of MI [1]; excluding one statistical outlier, n = 11",82.1 ± 8.6%
same,difference in IS/AAR vs the vehicle control,"porcine model of MI [1]; excluding one statistical outlier, P = 0.0562",7%
same,"effect on NR, NR/AAR or NR/IS",porcine model of MI [1]; full cohort,no significant effect
same,IS/AAR,"porcine model of MI [1]; full cohort, n = 12",76.3 ± 21.6%
same,extent of infarction (IS),"porcine model of MI [1]; full cohort, n = 12",18.2 ± 5.8 g
same,extent of infarction (IS) as % of LV mass,"porcine model of MI [1]; full cohort, n = 12",17.2 ± 5.7%
same,reduction of the extent of infarction in grams or % of LV mass vs vehicle,"porcine model of MI [1]; full cohort, n = 12 per group",27%
same,reduction in mean IS/AAR vs vehicle,"porcine model of MI [1]; full cohort, not significant (P = 0.0817)",13%
same,IS or no-reflow corrected for the area at ischemic risk,porcine model of MI [1]; in vivo,No significant reduction
same,"ANCOVA: slopes of IS and NR as a function of AAR, NR as a function of IS",porcine model of MI [1]; n = 11,No significant differences
same,VF during drug infusion,porcine model of MI [2],did not occur
